Source: US6531496B1 (Bayer Aktiengesellschaft, priority 1999, dated 2003)
In brackets after ≈: the same amount, converted by molar mass.

Experiments:
[1] = test system: Aspergillus Niger; assay: Minimum inhibitory concentration on malt extract agar; format: cell-based; conditions: 2 weeks at 28° C.
Description: (§1) To confirm the activity against fungi (Penicillium brevicaule, Chaetomium globosum, Aspergillus Niger), the minimum inhibitory concentrations (MICs) of agents according to the invention are determined:
(§2) Active compounds according to the invention are added in concentrations of from 0.1 mg/l to 5 000 mg/l to an agar prepared using malt extract. […] The MIC is the lowest concentration of active compound at which no growth whatsoever by the microbial species used occurs; it is indicated in the table which follows.

[2] = test system: Chaetomium globosum; assay: as above; format: cell-based; conditions: 2 weeks at 28° C.
Description: as §1, §2

[3] = test system: Penicillium brevicaule; assay: as above; format: cell-based; conditions: 2 weeks at 28° C.; for MIC: Penicillium, 336 h, read-out: Minimum inhibitory concentrations Penicillium brevicaule
Description: as §1, §2

[4] = test system: Plasmopara viticola; assay: Plasmopara test (grapevine)/protective; format: in vivo; conditions: 144 h, protective, evaluated 6 days after inoculation, read-out: Efficacy in %
Description: Plasmopara Test (Grapevine)/Protective Solvent: 47 parts by weight of acetone Emulsifier: 3 parts by weight of alkylaryl polyglycol ether To prepare a suitable active compound preparation, 1 part by weight of active compound is mixed with the stated amounts of solvent and emulsifier, and the concentrate is diluted with water to the desired concentration. To test for protective activity, young plants are sprayed with the active compound preparation at the application rate stated. After the spray coating has dried on, the plants are inoculated with an aqueous spore suspension of Plasmopara viticola and then remain for 1 day in an incubation cabinet at approx. 20° C. and a relative atmospheric humidity of 100%. […] The plants are then moistened and placed in an incubation cabinet for 1 day.

[5] = test system: Plutella; assay: Plutella test/synthetic feed; format: in vivo; conditions: active compound concentration 0.1%, after 7 days
Description: Plutella Test/Synthetic Feed Solvent: 100 parts by weight of acetone […] 1900 parts by weight of methanol To prepare a suitable active compound preparation, 1 part by weight of active compound is mixed with the stated amount of solvent and the concentrate is diluted with methanol to the desired concentration. A stated amount of active compound preparation of the desired concentration is pipetted onto a standardized amount of synthetic feed. After the methanol has evaporated, the lid of a film box, populated with approx. 100 Plutella eggs, is placed over each cavity. The freshly hatched larvae crawl onto the treated synthetic feed. After the desired time, the destruction is determined in %. 100% means that all the animals have been killed; 0% means that none of the animals have been killed.

[6] = logP by HPLC (EEC Directive 79/831 Annex V. A8, gradient method); format: physicochemical; conditions: gradient of acetonitrile/0.1% aqueous phosphoric acid; HPLC, gradient method, acetonitrile/0.1% aqueous phosphoric acid; Table 1
[7] = test system: greenhouse red spider mite (Tetranychus urticae); assay: Tetranychus test (OP-resistant/immersion treatment); format: in vivo; conditions: active compound concentration 0.01%
Description: Tetranychus Test (OP-resistant/Immersion Treatment)
Solvent: 3 parts by weight of dimethylformamide
Emulsifier: 1 part by weight of alkylaryl polyglycol ether
To prepare a suitable active compound preparation, 1 part by weight of active compound is mixed with the stated amount of solvent and the stated amount of emulsifier, and the concentrate is diluted with water to the desired concentrations.
Bean plants (Phaseolus vulgaris) which are severely infested by all stages of the greenhouse red spider mite (Tetranychus urticae) are immersed into an active compound preparation of the desired concentration.
After the desired time, the efficacy is determined in %. 100% means that all the spider mites have been killed; 0% means that none of the spider mites have been killed.

[8] = test system: green peach aphid (Myzus persicae); assay: Myzus test; format: in vivo; conditions: active compound concentration 0.01%
Description: Solvent: 6 parts by weight of dimethylformamide
67 parts by weight of methanol
Emulsifier: 2 parts by weight of alkylaryl polyglcol ether
To prepare a suitable active compound preparation, 1 part by weight of active compound is mixed with the stated amount of solvent and the stated amount of emulsifier, and the concentrate is diluted with emulsifier-containing water to the desired concentrations.
Field bean (Vicia faba) seedlings which are infested with the green peach aphid (Myzus persicae) are immersed into an active compound preparation of the desired concentration and placed into a plastic box.
After the desired period of time, the destruction is determined in %. 100% means that all the animals have been killed; 0% means that none of the animals have been killed.

[9] = test system: Venturia inaequalis; assay: Venturia test (apple)/protective; format: in vivo; conditions: 288 h, protective, evaluated 12 days after inoculation, read-out: Efficacy in %
Description: Venturia Test (Apple)/Protective Solvent: 47 parts by weight of acetone Emulsifier: 3 parts by weight of alkylaryl polyglycol ether To prepare a suitable active compound preparation, 1 part by weight of active compound is mixed with the stated amounts of solvent and emulsifier, and the concentrate is diluted with water to the desired concentration. To test for protective activity, young plants are sprayed with the active compound preparation at the application rate stated. After the spray coating has dried on, the plants are inoculated with an aqueous conidial suspension of the apple scab pathogen Venturia inaequalis and then remain for 1 day in an incubation cabinet at approx. 20° C. and 100% relative atmospheric humidity.

Row | MIC [3] | chromatographic logP [6] | SMILES | pest or weed control at 250 g/ha [4] | pest or weed control at 250 g/ha [9] | Minimum inhibitory concentrations Aspergillus Niger [1] | Minimum inhibitory concentrations Chaetomium globosum [2] | Minimum inhibitory concentrations Penicillium brevicaule [3] | other results
1 | 100 µg/mL (≈ 436 µM) | – | O=S1(=O)CSC(Oc2ccccc2)=N1 [Example 1] | – | – | – | – | – | MIC ([1]; Aspergillus niger, 336 h, read-out: Minimum inhibitory concentrations Aspergillus Niger): 100 µg/mL (≈ 436 µM); MIC ([2]; Chaetomium globosum, 336 h, read-out: Minimum inhibitory concentrations Chaetomium globosum): 100 µg/mL (≈ 436 µM)
2 | – | – | Nc1ccc(OC2=NS(=O)(=O)CS2)c(Cl)c1Cl [Example 14] | ≥ 90% | – | – | – | – | Destruction in % after 7^d [5]: 95%
3 | – | 2.62 | CO/N=C(/C)c1ccc(OC2=NS(=O)(=O)CS2)cc1 [Example 20] | – | – | – | – | – | Destruction in % after 7^h ([7]; after 7^h): 95%; destruction after 7 days ([7]; after 7 days): 95%
4 | – | 3.67 | C/C(=N/OCc1ccccc1)c1ccc(OC2=NS(=O)(=O)CS2)cc1 [Example 22] | – | – | – | – | – | Destruction in % after 6^d [8]: 100%
5 | – | 1.73 | CC(=O)c1cccc(OC2=NS(=O)(=O)CS2)c1 [Example 40] | ≥ 90% | ≥ 90% | – | – | – | Destruction in % after 6^d [8]: 90%
6 | – | – | Cc1cc(Cl)cc(OC2=NS(=O)(=O)CS2)c1 [Example 92] | – | – | 100 ppm | 100 ppm | 20 ppm | –
7 | 10 to 100 µg/mL (≈ 37.9 to 379 µM) | – | O=S1(=O)CSC(Oc2ccc(Cl)cc2)=N1 [Example 93] | – | – | 100 ppm | 50 ppm | 20 ppm | –
8 | 10 to 100 µg/mL (≈ 37.9 to 379 µM) | – | O=S1(=O)CSC(Oc2cccc(Cl)c2)=N1 [Example 94] | – | ≥ 90% | 100 ppm | 100 ppm | 20 ppm | –
9 | 10 to 100 µg/mL (≈ 33.5 to 335 µM) | – | O=S1(=O)CSC(Oc2ccc(Cl)c(Cl)c2)=N1 [Example 100] | ≥ 90% | ≥ 90% | 100 ppm | 50 ppm | 20 ppm | –
